Measurements published in US8420307B2, “Sperm cryoprotective media” (The Jackson Laboratory, priority 2006, dated 2013).
“Also recorded” adds a separate entry of the source.

Experiments:
Rat Sperm = test: Rat sperm motility after cryopreservation and thawing; format: cell-based, LEW/SsNHsd rat; conditions: addition of 477 μM MTG to lactose/egg yolk media
Description: The epididymides and vas deferentia were collected from one 33 week old LEW/SsNHsd rat (Harlan, Indianapolis, Ind.). Incisions were made in the tissue and the sperm were allowed to swim out, into 2 mL of a solution containing 8% lactose [w/v] (Sigma Aldrich; St. Louis, Mo.) and 23% egg yolk [v/v] from fresh eggs in distilled water (Invitrogen; Carlsbad, Calif.) for 10 min. The sperm suspension was then split with half being placed into the lactose/egg yolk solution and the other half being suspended in lactose/egg yolk solution containing 954 micromol MTG in 15 mL conical tubes. […] The 15 mL conical tubes containing the sperm samples were placed into a beaker containing ˜150 mL of 15° C. water for 10 min. […]
The sperm were loaded into 250 μL French straws (IMV; Maple Grove, Minn.; cat# AAA201), which were then sealed with an instantaneous heat sealer (model AIE-305HD; American International Electric; Whittier, Calif.) and 5 of them loaded into cassettes (Zanders Medical Supplies; Vero Beach, Fla.). […] The sperm were diluted 1:50 in Cooks Mouse Vitro Fert (Cook's; Spencer, Ind.) and motility was evaluated by counting at least 5 different fields using a video monitor connected to a microscope using a magnification of 40×. […]

bull sperm = test: Bovine sperm post-thaw motility (IVOS); format: cell-based, Holstein bulls; conditions: MTG 0, 100, 500, 1000 or 5000 μM in Triladyl egg yolk extender containing glycerol; 0 and 3 hr
Description: Semen was collected via an artificial vagina from 6 different Holstein bulls over 3 different days. The bulls were selected such that three produce sperm with good consistent freezing quality and three produce sperm that respond to cryopreservation with poorer consistency. Antibiotics were added to the neat semen and initial volume and concentration were determined using a graduated cylinder and spectrophotometry. From each collection, 5 different 500 μL aliquots of semen were extended with 1.5 mL of Triladyl egg yolk extender (Minitube; Verona, Wis.) containing glycerol. Subsequently, 2 mL of the same extender containing no MTG, 200, 1000, 2000 or 10,000 μM MTG was added to the extended semen to yield the final concentrations for MTG of 0, 100, 500, 1000 or 5000 μM. […]
(§1) For the examination, 6 straws per treatment per collection were thawed in a 37° C. water bath for at least 60 sec. For each treatment within a collection, two pools of semen were created and analyzed by combining the contents of three straws. […] The percent of motile sperm was determined on 4 different fields within each of 2 separate chambers. For viability the sperm samples were diluted 1:100 in PBS and stained with SYBR 14 ([…]) and propidium iodide (12 μM About 10,000 cells were counted using the Partec Flomax Flow Cytometer (Ft. Collins, Colo.).

bovine sperm = test: Bovine sperm post-thaw viability (SYBR 14 / propidium iodide flow cytometry); format: cell-based, Holstein bulls
Description: Sperm from three collections from each of 6 different bulls were frozen in the presence of MTG at the concentrations indicated on the x-axes. For each collection, two sets of three straws each were created and analyzed twice for sperm viability. Differences in sperm cell viability among the treatments were determined using analysis of variance on arcsine transformed percents and preplanned comparisons to the control of no MTG using Dunnett's method. Panel A illustrates the mean and standard errors for the 6 bulls while panels B though G illustrate the percent of viable sperm for the individuals. […]
Semen was collected via an artificial vagina from 6 different Holstein bulls over 3 different days. […] Antibiotics were added to the neat semen and initial volume and concentration were determined using a graduated cylinder and spectrophotometry. […]
as §1

Compound: OCC(O)CS (stereo not shown) [MTG, monothioglycerol]
- rat sperm motility after thawing, effect in words (Rat Sperm): increased motility
- overall post-thaw motility of bull sperm (bull sperm): no ill effects
- post-thaw viability of bovine sperm (bovine sperm; MTG 0, 100, 500, 1000 or 5000 μM in egg yolk extender containing glycerol, 6 bulls, FIG. 5): not negatively influenced; also recorded: enhances post-thaw viability
- increase of viability (bovine sperm; bovine sperm, 3 bulls with slight effect): slight effect
